Reference: patent publication US20240100076A1, “METHODS AND COMPOSITIONS FOR TREATING NEURODEGENERATIVE DISEASES” (Augusta University Research Institute, Inc., priority 2021, published 2024)
“Also recorded” adds a separate entry of the source.

Key:
aSyn = target: T1, aSyn (Homo sapiens, UniProt P37840, A53T); assay: aSyn levels in A53T PD mouse brain after intranasal gangliosides; assay type: in vivo; conditions: intranasal 5 mg/kg/day for 28 days, 8-month-old A53T PD mice
T1 construct: tissue The Jackson Laboratory 006823; host or cells: brain / substantia nigra of A53T PD transgenic mice
Protocol: (§1) The acquisition, care, and experimental treatment of animals used in this study were in compliance with the NIH guidelines as published in the Guide for the Care and Use of Laboratory Animals. Gangliosides (GD3 or GM1; 5 mg/kg/day) were infused intranasally (Hanson, et al., J. Vis. Exp. (74) (2013) doi.org/10.3791/4440.) with a small pipette (each […] into the right and left nares twice, or […] per day) into 8-month-old WT (C57B6/J), A53T PD, and GM2S-KO mice daily for 7-28 days. GD3 and GM1 used in this study were isolated from either bovine buttermilk or brains by established procedures (Ariga, et al., J. Biol. Chem. 269, 2667-2675 (1994), Ledeen and Yu, Methods Enzymol. 83, 139-191 (1982), Ren, et al., J. Biol. Chem. 267, 12632-12638 (1992)). Gangliosides, being amphipathic, were easily dissolved in saline. The placebo group received saline infusions. At first, to provide direct evidence for ganglioside administration into brain, mice totally deficient in GM1 (8-month-old GM2S-KO mice) were intranasally administered GM1 (0.5 or 5 mg/kg/day) for 7 days. Brain-delivered GM1 was analyzed by immunohistochemistry and TLC. After confirmation that ganglioside reached the brain of GM2S-KO mice by the intranasal route, 8-month-old A53T PD mice were utilized for ganglioside treatments (28 days). […]

[1] = tested on: tyrosine hydroxylase (TH); assay: TH expression at substantia nigra in PD mouse brain; assay type: in vivo; conditions: intranasal 5 mg/kg/day for 28 days
Protocol: as §1

Nurr1 = assay: Expression and nuclear localization of Nurr1 in substantia nigra pars compacta of A53T PD mouse; assay type: in vivo; conditions: intranasal 5 mg/kg/day for 28 days
Protocol: as §1

VDAC1 = VDAC1 expression in PD mouse brain; assay type: in vivo; conditions: intranasal 5 mg/kg/day for 28 days
Protocol: as §1

GM2S = GM2S gene expression in PD mouse brain; assay type: in vivo; conditions: intranasal 5 mg/kg/day for 28 days
Protocol: as §1

TH = TH expression in substantia nigra of GM2S-KO mouse; assay type: in vivo; conditions: intranasal 5 mg/kg/day for 28 days, 8 months old GM2S-KO mouse
Protocol: as §1

Neuro 2a cells = assay: TH mRNA expression in Neuro 2a cells (qPCR); assay type: cell-based, mouse; conditions: 5 mM ganglioside, 24 h
Protocol: (§2) Mouse Neuro-2a neuroblastoma cells (ATCC, Manassas, VA, USA, CCL-131) were maintained in Dulbecco's modified Eagle's medium supplemented with 10% fetal bovine serum, 2 mM glutamine, and penicillin/streptomycin at 37° C., 5% CO2.
Total RNA samples were isolated from substantia nigra of mouse brains or cultured Neuro 2a cells using TRIzol reagent (Life Technologies from Thermo Fisher Scientific). Neuro 2a cells were untreated or treated with 5 mM GD3 or GM1 in B27-supplemented Neuro-basal-A medium for 24 h. cDNAs were synthesized based on the total RNAs as templates using MultiScribe reverse transcriptase (Applied Biosystems, Waltham, MA, USA). qPCR was performed with run RT2 SYBR Green qPCR master mix (QIAGEN, Hilden, Germany) on the CFX96 system (Bio-Rad, Hercules, CA, USA). The relative expression levels of TH were normalized to the actin transcript level. The normalized value from control (WT+saline, or no treated cells) is defined as 1.0. The following primers were used: TH forward, 5′-CACTATGCCCACCCCCAG-3′ (SEQ ID NO:1), reverse: 5′-CGCCGTCCAATGAACCTT-3′ (SEQ ID NO:2); actin forward, 5′-[…]-3′ (SEQ ID NO:3), reverse, 5′-[…]-3′ (SEQ ID NO:4).

TH gene promoter = assay: ChIP assay on TH gene promoter in Neuro 2a cells; assay type: cell-based, mouse; conditions: 5 mM ganglioside, 24 h
Protocol: as §2
ChIP assays were performed on cell lysates as previously described.31,32,76 Briefly, Neuro 2a cells, untreated or treated with 5 mM GD3 or GM1 for 24 h, were incubated in 1% PFA for 10 min at ambient temperature to crosslink the interacting partners. Cells with the cross-linked complexes were subjected to lysis by sonication with six 20-s pulses at the power scale 7 controlled by a sonicator (Sonic dismembrator model 100, Fisher Scientific). After centrifugation at 15,000×g for 10 min, the supernatants were collected for the following experiments. Immunoprecipitation was carried out with the following specific antibodies bound on protein G-conjugated magnetic beads (Millipore): anti-acetylated histone H3 (Millipore), anti-Nurr1 (R&D Systems), or anti-PITX3 (Thermo Fisher Scientific) antibodies. The amounts of the co-precipitated DNA fragments of TH promoter (+0), the Nurr1 binding site on the TH promoter (TH-NBS), and the PITX3 binding site on TH promoter (TH-PBS) were analyzed by qPCR. After normalization against GAPDH, the value of no treated cells was defined as 1.0. The following primers were used: TH forward, 5′-[…]-3′ (SEQ ID NO:5), reverse, 5′-[…]-3′ (SEQ ID NO:6); TH NBS forward, 5′-[…]-3′ (SEQ ID NO:7), reverse, 5′-[…]-3′ (SEQ ID NO:8); TH PBS forward, 5′-[…]-3′ (SEQ ID NO:9), reverse, 5′-[…]-3′ (SEQ ID NO:10); GAPDH forward, 5′-[…]-3′ (SEQ ID NO:11), reverse, 5′-TCAGTTCGGAG CCCACACGC-3′ (SEQ ID NO:12).

5XFAD mice [2] = assay: Novel object recognition test in 5XFAD mice; assay type: in vivo, mouse; conditions: intranasal 5 mg/kg/day for 8 weeks (combination: GD3 4 weeks, GM1 4 weeks), 2-month-old 5XFAD mice, n=3
Protocol: FIGS. 9A and 9B illustrate the memory function of intranasal ganglioside treatments. FIG. 9A is a schematic diagram showing the experimental procedure of novel object recognition test. […] Each mouse was placed in an arena, with two identical objects placed at each end of the arena. After 5 min of investigation, mice were returned to their home cage. 24 hours later, one test object was replaced with a novel object, and animals were allowed 5 min for investigation. The time spent exploring each object was recorded. Percentages of exploration time of novel object (memory) are shown in the columns (n=3).
Gangliosides (5 mg/kg/day), GD3, GM1, or GD3-GM1 (GD3 for 4 weeks and GM1 for 4 week) were administered into 2-month-old 5XFAD mice for 8 weeks. To assess the effect of intranasal ganglioside treatment on cognitive function, mice were tested using the novel object recognition test (FIG. 9A). […] These findings indicate that intranasal ganglioside has an important role to enhance hippocampal-dependent learning and memory.

5XFAD mice [3] = assay: Buried pellet test (olfactory function) in 5XFAD mice; assay type: in vivo, mouse; conditions: intranasal 5 mg/kg/day for 8 weeks (combination: GD3 4 weeks, GM1 4 weeks), n=3
Protocol: To detect olfaction deficiency, the buried pellet test was assessed (FIG. 10A). Bedding tips were set to 3 cm height. The time until mice uncover the food pellet was measured. […] It is believed that GD3 maintains stemness and inhibits further neuronal differentiation such as olfactory neurons. […] The buried pellet test, which relies on the animal's natural tendency to use olfactory cues for foraging, is used to confirm ability to smell (FIG. 10A). The time until mice uncover the food pellet in bedding tips was measured. […] Thus, GD3 has important role in olfactory function (FIG. 12).

5XFAD mice [4] = assay: Whole-body dual-energy X-ray absorptiometry (DXA) in 5XFAD mice; assay type: in vivo, mouse; conditions: intranasal, 8 weeks (combination 4 + 4 weeks)
Protocol: Bone loss often accelerates with neurodegenerative diseases and during aging. Protecting from bone loss would be complementary to treatments for neurodegenerative diseases. Body composition analyses were measured by dual-energy X-ray absorptiometry (DXA; Kubtec Digimus, KUB Technologies, Stratford, CT, USA). Bone area (cm2), Bone mineral content (BMC, grams) and bone mineral density (BMD, g/cm2) were calculated for the whole body (FIGS. 11A-11C) using the manufacturer's analysis software (Kubtec Digimus). […] Increasing bone density in patients with neurodegenerative diseases, would decrease risk of fracture and increase the quality of life.

5XFAD mouse brain = conditions: icv 5 mg/kg/day for 7 days; cited from earlier work
[5] = tested on: hippocampal NSC (Sox2 positive cell); assay: SOX2 positive NSCs in hippocampus of PD mouse brain; assay type: in vivo; conditions: intranasal 5 mg/kg/day for 28 days (combination: GD3 2 weeks, then GM1 2 weeks)
Protocol: as §1

NSC pools in DG and SVZ = conditions: icv by micro-osmotic pump, 5 mg/kg/day for 7 days, GD3S-KO mouse; cited from earlier work

Substance	aSyn levels / aSyn accumulation (aSyn)	TH expression at substantia nigra [1]	expression and nuclear localization of Nurr1 (Nurr1)	VDAC1 expression (VDAC1)	expression of GM2S (GM2S)	TH expression in substantia nigra of GM2S-KO mouse (TH)	TH expression (mRNA) (Neuro 2a cells)	acetylated histone H3 on TH gene promoter (ChIP) (TH gene promoter; anti-AcH3)	recruitment of Nurr1 on the TH promoter region (ChIP) (TH gene promoter; anti-Nurr1)	recruitment of Pitx3 on the TH promoter (ChIP) (TH gene promoter; anti-Pitx3)	memory function (exploration time of novel object) (5XFAD mice [2])	olfactory function (time to uncover the food pellet) (5XFAD mice [3])	bone area (5XFAD mice [4])	bone mineral content (5XFAD mice [4])	bone mineral density (5XFAD mice [4])	BrdU+/doublecortin+ (DCX+) newly generated immature neurons (5XFAD mouse brain)	hippocampal NSC (Sox2 positive cell) number [5]	NSC pools in DG and SVZ (NSC pools in DG and SVZ)	SOX2-expressing cells in DG (5XFAD mouse brain)
monosialotetrahexosylganglioside [GM1]	strongly inhibits; also recorded: reduced aSyn levels	dramatically restored TH expression	restored	significantly enhance the expression	promoted expression of GM2S	restore the normal TH expression	dramatically increased the TH expression	augmentation of acetylated histone H3	remarkably recruited	also recruited Pitx3	increased memory function	enhance olfactory function	increased	increased	increased	increases BrdU+/doublecortin+ (DCX+) newly generated immature neurons	–	–	–
monosialodihexosylganglioside [GD3]	partially inhibits	–	–	significantly enhance the expression	–	–	–	–	–	–	increased memory function	could not enhance olfactory function	increased	increased	increased	–	partially restored hippocampal NSC (Sox2 positive cell) number	augments NSC pools in DG and SVZ	augments self-renewal and multipotent marker, SOX2-expressing cells
